Reference: US8034827B2, “Phenanthridine derivatives as bradykinin antagonists” (Richter Gegeon Nyrt., priority 2005, dated 2011)
Where a name gives a salt, the structure may show the parent alone.

How the values were obtained:
[1] = molecular target: T1, recombinant human B1 receptors (Homo sapiens, UniProt P46663); test: Antagonist potency by measurement of cytosolic calcium ion concentration in CHO-B1 cells (agonist LysDABK); assay type: cell-based; details: inhibition of LysDABK (EC80)-evoked [Ca2+]i elevation, fluo-4, read-out: B1 func.
T1 construct: host or cells: CHO (CHO-B1)
T1 sequence (P46663 1-353): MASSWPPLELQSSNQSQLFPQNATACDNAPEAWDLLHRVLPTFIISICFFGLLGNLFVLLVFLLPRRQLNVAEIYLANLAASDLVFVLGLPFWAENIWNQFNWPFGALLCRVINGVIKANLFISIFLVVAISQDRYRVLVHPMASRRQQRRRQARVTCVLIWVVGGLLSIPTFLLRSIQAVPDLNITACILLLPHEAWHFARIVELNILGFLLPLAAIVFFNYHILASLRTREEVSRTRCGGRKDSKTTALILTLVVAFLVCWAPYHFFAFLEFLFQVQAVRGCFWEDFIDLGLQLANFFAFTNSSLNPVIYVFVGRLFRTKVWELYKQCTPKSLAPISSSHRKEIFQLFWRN
Experimental: Assessment of Antagonist Potency at B1 and B2 Receptors In Vitro by Measurement of Cytosolic Calcium Ion Concentration with a Plate Reader Fluorimeter in Cells Expressing Recombinant Human B1 or B2 Receptors
Chinese hamster ovary (CHO) cells stably expressing recombinant human B1 (CHO-B1, Euroscreen) or B2 (CHO-B2, Perkin-Elmer) receptors were cultured in Dulbecco's Modified Eagle's Medium (DMEM) containing 10% Fetal Calf Serum (FCS), 100 U/ml penicillin, 0.1 mg/ml streptomycin, 0.25 μg/ml amphotericin B, 1% Minimum Essential Medium Eagle (MEM), non essential amino acid solution, 600 μg/ml G418, 1% pyruvate (for the B2 cell line). Cells were kept at 37° C. in a humidified incubator in an atmosphere of 5% CO2/95% air and were passaged 1:4 three times a week. Cells were plated at 1.5-2.5×10^4 cell/well on standard 96-well microplates, measurements of cytosolic calcium ion concentration ([Ca^2+]i) were carried out 1-2 days after cell plating.
Measurements of [Ca^2+]i were carried out on CHO-B1 and CHO-B2 cells stably expressing human B1 and B2 receptors, respectively. Cells were grown in standard 96-well microplates and before the measurement were loaded with a fluorescent Ca^2+-sensitive dye, fluo-4/AM (2 μM): after removing the culture medium the dye was added to the cells (dissolved in assay buffer: 145 mM NaCl, 5 mM KCl, 2 mM MgCl2, 2 mM CaCl2, 10 mM HEPES, 20 mM D-glucose, 2 mM probenecid, 100 μl/well) and cells were incubated at 37° C. in a humidified incubator in an atmosphere of 5% CO2/95% air for 40-120 min. To stop dye loading cells were washed twice with assay buffer. After washing, various concentrations of the test compounds (diluted in extracellular medium from a DMSO stock solution, final DMSO concentration was <0.1%) or buffer were added to each well depending on the experimental setup. After incubation at 37° C. for 20-25 min. baseline and agonist-evoked changes of [Ca^2+]i were measured column by column with a plate reader fluorimeter (Fluoroskan Ascent, Labsystems). Excitation and detection of emission was carried out from the bottom of the plate. Filters used for Fluo-4: excitation filter −485 nm, emission filter −538 nm. The whole measurement process was performed at 37° C. and was controlled by custom software. Inhibitory potency of the test compounds was assessed by measuring the reduction in the agonist-evoked [Ca^2+]i-elevation in the presence of different concentrations of the compounds. The agonists were LysDABK for CHO-B1, and bradykinin for CHO-B2 cells. Agonists were applied at an EC80 concentration, the EC80-values were derived from daily determined dose-response curves. Fluorescence data were expressed as ΔF/F (fluorescence change normalized to baseline). All treatments on a single plate were measured in multiple wells. Data from all wells with the same treatment were averaged and the average values were used for analysis. Inhibitory potency of a compound at a single concentration point was expressed as percent inhibition of the control agonist response. Sigmoidal concentration-inhibition curves were fitted to the data (derived from at least three independent experiments) and IC50-values were determined as the concentration that produces half of the maximal inhibition caused by the compound.

[2] = molecular target: T2, human recombinant bradykinin1 receptors (Homo sapiens, UniProt P46663); test: Human recombinant bradykinin B1 receptor binding; details: CHO cell membranes, [3H]-[Des-Arg10] Kallidin radioligand
T2 construct: host or cells: CHO cells
T2 sequence (P46663 1-353): T1 sequence (P46663 1-353)
Experimental: Receptor Binding Assays 1. Human Recombinant Bradykinin B1 Receptor Binding
Binding assays were carried out on human recombinant bradykinin1 receptors (expressed in CHO cells) according to the Euroscreen Technical Data Sheet (Cat. No.: ES-091). 20 μg protein/tube was incubated with [3,4-prolyl-3,4-^3H(N)]-[Des-Arg^10] Kallidin as radioligand. Non specific binding was determined in the presence of 10 μM Lys-des-Arg^9-Bradykinin. The final incubation volume was 250 μl. Samples were incubated for 15 min. at 25° C. then were rapidly vacuum filtered through GF/B filters presoaked for at least 1 h in 0.5% PEI. Radioactivity was determined by liquid scintillation spectroscopy.

Q: For `NCc1ccc(CC(NC(=O)CC(NS(=O)(=O)c2ccc3ccccc3c2)c2ccccc2)C(=O)N2CCCC2)cc1` (racemic) [Example 70003770, (±)-N-[1-(4-aminomethyl-benzyl)-2-oxo-2-pyrrolidin-1-yl-ethyl]-3-(naphthalene-2-sulfonylamino)-3-phenyl-propionamide, reference compound], which IC50 [1] is on record?
A: Its IC50 is greater than 500 nM.

Q: And the Ki [2]?
A: Its Ki is greater than 500 nM.

Q: `CCCN1C(=O)C(NC(=O)Nc2ccc(N3CCC(N4CCCCC4)CC3)cc2)N=C(c2ccc(C)cc2)c2ccccc21` (racemic) [Example 70004387, (±)-N-[4-(1,4′-bipiperidin)-1′-yl-phenyl]-N′-[2,3-dihydro-5-(4-methyl-phenyl)-2-oxo-1-propyl-1H-1,4-benzodiazepin-3-yl]-urea, reference compound] was tested. Which IC50 [1] did it give?
A: The IC50 was 100 to 500 nM.

Q: What about the Ki [2] of the same molecule?
A: Its Ki is less than 100 nM.

Q: What does the source list for `O=C(CC1c2cc(F)ccc2-c2ccccc2N1S(=O)(=O)c1ccc(Cl)c(Cl)c1)NCCc1ccc(C2=NCCN2)cc1` (stereo not drawn) [Example 1, 2-[5-(3,4-Dichloro-benzenesulfonyl)-8-fluoro-5,6-dihydro-phenanthridin-6-yl]-N-{2-[4-(4,5-dihydro-1H-imidazol-2-yl)-phenyl]-ethyl}-acetamide hydrochloride]?
A: IC50 [1]: < 100 nM; Ki [2]: < 100 nM

Q: With `O=C(CC1c2ccccc2-c2ccccc2N1S(=O)(=O)c1ccc(Cl)c(Cl)c1)NCCc1ccc(C2=NCCN2)cc1` (stereo not drawn) [Example 2, 2-[5-(3,4-Dichloro-benzenesulfonyl)-5,6-dihydro-phenanthridin-6-yl]-N-{2-[4-(4,5-dihydro-1H-imidazol-2-yl)-phenyl]-ethyl}-acetamide hydrochloride] as the molecule, how does the IC50 [1] read?
A: The IC50 was less than 100 nM.

Q: What about the Ki [2] of the same molecule?
A: Its Ki is less than 100 nM.

Q: What does the source list for `O=C(CC1c2ccccc2-c2ccccc2N1S(=O)(=O)c1ccc(Cl)c(Cl)c1)NCCN1CCN(c2ccncc2)CC1` (stereo not drawn) [Example 3]?
A: IC50 [1]: < 100 nM; Ki [2]: < 100 nM

Q: `O=C(CC1c2ccccc2-c2ccccc2N1S(=O)(=O)c1ccc(Cl)c(Cl)c1)N[C@H]1CC[C@H](CCN2CCCC2)CC1` (stereo partly drawn) [Example 4, trans-2-[5-(3,4-Dichloro-benzenesulfonyl)-5,6-dihydro-phenanthridin-6-yl]-N-[4-(2-pyrrolidin-1-yl-ethyl)-cyclohexyl]-acetamide] was tested. Which IC50 [1] did it give?
A: Its IC50 is less than 100 nM.

Q: And the Ki [2]?
A: Its Ki is less than 100 nM.

Q: Which results are given for `O=C(CC1c2ccccc2-c2ccccc2N1S(=O)(=O)c1ccc(Cl)c(Cl)c1)N1CCC(Cc2ccc(C3=NCCN3)cc2)CC1` (stereo not drawn) [Example 5, 2-[5-(3,4-Dichloro-benzenesulfonyl)-5,6-dihydro-phenanthridin-6-yl]-1-{4-[4-(4,5-dihydro-1H-imidazol-2-yl)-benzyl]-piperidin-1-yl}-ethanone]?
A: IC50 [1]: < 100 nM; Ki [2]: < 100 nM

Q: Which results are given for `O=C(CC1c2ccccc2-c2ccccc2N1S(=O)(=O)c1ccc(Cl)c(Cl)c1)N1CCC(Cc2ccc(C3=NCCCN3)cc2)CC1` (stereo not drawn) [Example 6, 2-[5-(3,4-Dichloro-benzenesulfonyl)-5,6-dihydro-phenanthridin-6-yl]-1-{4-[4-(1,4,5,6-tetrahydro-pyrimidin-2-yl)-benzyl]-piperidin-1-yl}-ethanone]?
A: IC50 [1]: < 100 nM; Ki [2]: < 100 nM

Q: For `O=C(CC1c2ccccc2-c2ccccc2N1S(=O)(=O)c1ccc(Cl)c(Cl)c1)Nc1ccc(N2CCC(N3CCCCC3)CC2)cc1` (stereo not drawn) [Example 8, N-(4-[1,4′]Bipiperidinyl-1-yl-phenyl)-2-[5-(3,4-dichloro-benzenesulfonyl)-5,6-dihydro-phenanthridin-6-yl]-acetamide], which IC50 [1] is on record?
A: Its IC50 is 100 to 500 nM.

Q: And the Ki [2]?
A: The Ki was less than 100 nM.

Q: What does the source list for `O=C(CC1c2ccccc2-c2ccccc2N1S(=O)(=O)c1ccc(Cl)c(Cl)c1)NCCCN1CCN(c2ccncc2)CC1` (stereo not drawn) [Example 9, 2-[5-(3,4-Dichloro-benzenesulfonyl)-5,6-dihydro-phenanthridin-6-yl]-N-[3-(4-pyridin-4-yl-piperazin-1-yl)-propyl]-acetamide]?
A: IC50 [1]: < 100 nM; Ki [2]: < 100 nM

Q: Which results are given for `Cc1ccc(S(=O)(=O)N2c3ccccc3-c3ccccc3C2CC(=O)NCCc2ccc(C3=NCCN3)cc2)cc1` (stereo not drawn) [Example 14, N-{2-[4-(4,5-Dihydro-1H-imidazol-2-yl)-phenyl]-ethyl}-2-[5-(toluene-4-sulfonyl)-5,6-dihydro-phenanthridin-6-yl]-acetamide hydrochloride]?
A: IC50 [1]: < 100 nM; Ki [2]: < 100 nM

Q: `Cc1cc(C)c(S(=O)(=O)N2c3ccccc3-c3ccccc3C2CC(=O)NCCc2ccc(C3=NCCN3)cc2)c(C)c1` (stereo not drawn) [Example 15, N-{2-[4-(4,5-Dihydro-1H-imidazol-2-yl)-phenyl]-ethyl}-2-[5-(2,4,6-trimethyl-benzenesulfonyl)-5,6-dihydro-phenanthridin-6-yl]-acetamide hydrochloride] was tested. Which IC50 [1] did it give?
A: The IC50 was less than 100 nM.

Q: What about the Ki [2] of the same molecule?
A: The Ki was less than 100 nM.

Q: For `COc1ccc(S(=O)(=O)N2c3ccccc3-c3ccccc3C2CC(=O)NCCc2ccc(C3=NCCN3)cc2)cc1` (stereo not drawn) [Example 16, N-{2-[4-(4,5-Dihydro-1H-imidazol-2-yl)-phenyl]-ethyl}-2-[5-(4-methoxy-benzenesulfonyl)-5,6-dihydro-phenanthridin-6-yl]-acetamide hydrochloride], which IC50 [1] is on record?
A: Its IC50 is less than 100 nM.

Q: What about the Ki [2] of the same molecule?
A: The Ki was less than 100 nM.

Q: For `COc1cccc2c1-c1ccccc1N(S(=O)(=O)c1ccc(Cl)c(Cl)c1)C2CC(=O)NCCc1ccc(C2=NCCN2)cc1` (stereo not drawn) [Example 17, 2-[5-(3,4-Dichloro-benzenesulfonyl)-10-methoxy-5,6-dihydro-phenanthridin-6-yl]-N-{2-[4-(4,5-dihydro-1H-imidazol-2-yl)-phenyl]-ethyl}-acetamide hydrochloride], which IC50 [1] is on record?
A: Its IC50 is less than 100 nM.

Q: What about the Ki [2] of the same molecule?
A: Its Ki is less than 100 nM.

Q: How did the IC50 [1] turn out when `O=C(CC1c2cc(F)cc(F)c2-c2ccccc2N1S(=O)(=O)c1ccc(Cl)c(Cl)c1)NCCc1ccc(C2=NCCN2)cc1` (stereo not drawn) [Example 18, 2-[5-(3,4-Dichloro-benzenesulfonyl)-8,10-difluoro-5,6-dihydro-phenanthridin-6-yl]-N-{2-[4-(4,5-dihydro-1H-imidazol-2-yl)-phenyl]-ethyl}-acetamide hydrochloride] was run?
A: Its IC50 is less than 100 nM.

Q: What about the Ki [2] of the same molecule?
A: Its Ki is less than 100 nM.

Q: For `CC(=O)c1ccc2c(c1)C(CC(=O)NCCc1ccc(C3=NCCN3)cc1)N(S(=O)(=O)c1ccc(Cl)c(Cl)c1)c1ccccc1-2` (stereo not drawn) [Example 19, 2-[8-Acetyl-5-(3,4-dichloro-benzenesulfonyl)-5,6-dihydro-phenanthridin-6-yl]-N-{2-[4-(4,5-dihydro-1H-imidazol-2-yl)-phenyl]-ethyl}-acetamide hydrochloride], which IC50 [1] is on record?
A: The IC50 was 100 to 500 nM.

Q: And the Ki [2]?
A: The Ki was less than 100 nM.

Q: Which IC50 [1] does the source give for `N=C(N)c1ccc(CCNC(=O)CC2c3ccccc3-c3ccccc3N2S(=O)(=O)c2ccc(Cl)c(Cl)c2)cc1` (stereo not drawn) [Example 20, N-[2-(4-Carbamimidoyl-phenyl)-ethyl]-2-[5-(3,4-dichloro-benzenesulfonyl)-5,6-dihydro-phenanthridin-6-yl]-acetamide] here?
A: The IC50 was less than 100 nM.

Q: And the Ki [2]?
A: The Ki was less than 100 nM.

Q: How did the IC50 [1] turn out when `COc1cccc2c1-c1ccccc1N(S(=O)(=O)c1ccc(Cl)c(Cl)c1)C2CC(=O)N[C@H]1CC[C@H](CCN2CCCC2)CC1` (stereo partly drawn) [Example 21, trans-2-[5-(3,4-Dichloro-benzenesulfonyl)-10-methoxy-5,6-dihydro-phenanthridine-6-yl]-N-[4-(2-pyrrolidin-1-ylethyl)-cyclohexyl]-acetamide] was run?
A: Its IC50 is less than 100 nM.

Q: And the Ki [2]?
A: Its Ki is less than 100 nM.
